The results in this text go back to patent US8173652B2, “Isoxazole-isoxazoles and isoxazole-isothiazoles” (Hoffmann-La Roche Inc., priority 2009, dated 2012).

Molecules are shown by their SMILES.

The target of this assay is T1, human GABA A receptor α5β3γ2 (Homo sapiens, UniProt P18507+P31644).
T1 construct: expressed in transfected cells; host or cells: HEK293 (transiently transfected), membrane preparation
In words: [3H]flumazenil competition binding assay, human GABA A α5 receptor. Conditions: human α5β3γ2 receptors transiently transfected in HEK293 cells; displacement of [3H]flumazenil 0.5 nM; 1 hour at 4° C.; means of two determinations; read-out: hKi GABA A α5. As for the experimental part:
Membrane Preparation and Binding Assay
The affinity of compounds at GABA A receptor subtypes was measured by competition for [3H]flumazenil (85 Ci/mmol; Roche) binding to HEK293 cells expressing rat (stably transfected) or human (transiently transfected) receptors of composition α1β3γ2, α2β3γ2, α3β3γ2 and α5β3γ2.
Cell pellets were suspended in Krebs-tris buffer (4.8 mM KCl, 1.2 mM CaCl2, 1.2 mM MgCl2, 120 mM NaCl, 15 mM Tris; pH 7.5; binding assay buffer), homogenized by polytron for ca. 20 sec on ice and centrifuged for 60 min at 4° C. (50000 g; Sorvall, rotor: SM24=20000 rpm). The cell pellets were re-suspended in Krebs-tris buffer and homogenized by polytron for ca. 15 sec on ice. Protein was measured (Bradford method, Bio-Rad) and aliquots of 1 mL were prepared and stored at −80° C.
Radioligand binding assays were carried out in a volume of […] (96-well plates) which contained […] of cell membranes, [^3H]flumazenil at a concentration of 1 nM for α1, α2 and α3 subunits and 0.5 nM for α5 subunits and the test compound in the range of […]. Nonspecific binding was defined by 10^−5 M diazepam and typically represented less than 5% of the total binding. Assays were incubated to equilibrium for 1 hour at 4° C. and harvested onto GF/C uni-filters (Packard) by filtration using a Packard harvester and washing with ice-cold wash buffer (50 mM Tris; pH 7.5). After drying, filter-retained radioactivity was detected by liquid scintillation counting. Ki values were calculated using Excel-Fit (Microsoft) and are the means of two determinations.
In general terms: In a radioligand displacement assay an active substance lowers the binding of a labelled ligand.
Turning to `Cc1onc(-c2ccccc2)c1COc1cc(C(=O)NC(C)CO)on1` (single isomer, unassigned) [Example 8, (R or S)-3-(5-Methyl-3-phenyl-isoxazol-4-ylmethoxy)-isoxazole-5-carboxylic acid (2-hydroxy-1-methyl-ethyl)-amide], the Ki came out at 13.5 nM.
Regarding `Cc1onc(-c2ccccc2)c1COc1cc(C(=O)NC(C)CO)on1` (single isomer, unassigned) [Example 9, (S or R)-3-(5-Methyl-3-phenyl-isoxazol-4-ylmethoxy)-isoxazole-5-carboxylic acid (2-hydroxy-1-methyl-ethyl)-amide], the Ki came out at 23.1 nM.
To `CCCCc1noc(C)c1COc1cc(C(=O)NC2CCOC2)on1` (single isomer, unassigned) [Example 30, (R or S)-3-(3-Butyl-5-methyl-isoxazol-4-ylmethoxy)-isoxazole-5-carboxylic acid (tetrahydro-furan-3-yl)-amide] belongs 6.5 nM.
With `CCCCc1noc(C)c1COc1cc(C(=O)NC2CCOC2)on1` (single isomer, unassigned) [Example 31, (S or R)-3-(3-Butyl-5-methyl-isoxazol-4-ylmethoxy)-isoxazole-5-carboxylic acid (tetrahydro-furan-3-yl)-amide], the Ki came out at 2.8 nM.
In the case of `CCCCc1noc(C)c1/C=C/c1cc(C(=O)NCCO)on1` [Example 1, 3-[(E)-2-(3-Butyl-5-methyl-isoxazol-4-yl)-vinyl]-isoxazole-5-carboxylic acid (2-hydroxy-ethyl)-amide], the Ki was found to be 28.6 nM.
To `Cc1onc(-c2ccccc2)c1COc1cc(C(=O)NC(C)C)on1` [Example 3, 3-(5-Methyl-3-phenyl-isoxazol-4-ylmethoxy)-isoxazole-5-carboxylic acid isopropylamide] belongs 7.5 nM; to `Cc1onc(-c2ccccc2)c1COc1cc(C(=O)NC2CCOC2)on1` (centres unmarked) [Example 4, 3-(5-Methyl-3-phenyl-isoxazol-4-ylmethoxy)-isoxazole-5-carboxylic acid (tetrahydro-furan-3-yl)-amide], 4.4 nM.
To `Cc1onc(-c2ccccc2)c1COc1cc(C(=O)NCCO)on1` [Example 5, 3-(5-Methyl-3-phenyl-isoxazol-4-ylmethoxy)-isoxazole-5-carboxylic acid (2-hydroxy-ethyl)-amide] belongs 8 nM.
On to `Cc1onc(-c2ccccc2)c1COc1cc(C(=O)NC(C)CO)on1` (centres unmarked) [Example 6, 3-(5-Methyl-3-phenyl-isoxazol-4-ylmethoxy)-isoxazole-5-carboxylic acid (2-hydroxy-1-methyl-ethyl)-amide], for which the Ki worked out at 8.8 nM.
Consider `CC(=O)OCCNC(=O)c1cc(OCc2c(-c3ccccc3)noc2C)no1` [Example 7, Acetic acid 2-{[3-(5-methyl-3-phenyl-isoxazol-4-ylmethoxy)-isoxazole-5-carbonyl]-amino}-ethyl ester], for which the Ki worked out at 16.8 nM.
With `Cc1onc(-c2ccccc2)c1COc1cc(C(=O)NN(C)C)on1` [Example 10, 3-(5-Methyl-3-phenyl-isoxazol-4-ylmethoxy)-isoxazole-5-carboxylic acid N′,N′-dimethyl-hydrazide], the Ki was 22.2 nM.
For `Cc1onc(-c2ccccc2)c1COc1cc(C(=O)NN2CCCCC2)on1` [Example 11, 3-(5-Methyl-3-phenyl-isoxazol-4-ylmethoxy)-isoxazole-5-carboxylic acid piperidin-1-yl-amide], the Ki was 13.8 nM.
Turning to `Cc1onc(-c2ccccc2)c1COc1cc(C(=O)NN2CCCC2)on1` [Example 12, 3-(5-Methyl-3-phenyl-isoxazol-4-ylmethoxy)-isoxazole-5-carboxylic acid pyrrolidin-1-yl-amide], the Ki was found to be 18.5 nM.
Turning to `Cc1onc(-c2ccccc2)c1COc1cc(C(=O)NN2CCOCC2)on1` [Example 13, 3-(5-Methyl-3-phenyl-isoxazol-4-ylmethoxy)-isoxazole-5-carboxylic acid morpholin-4-ylamide], the Ki is 2.8 nM.
Regarding `Cc1onc(-c2ccccn2)c1COc1cc(C(=O)NC(C)C)on1` [Example 14, 3-(5-Methyl-3-pyridin-2-yl-isoxazol-4-ylmethoxy)-isoxazole-5-carboxylic acid isopropyl-amide], the Ki worked out at 2.5 nM.
Consider `Cc1onc(-c2ccccn2)c1COc1cc(C(=O)NCCO)on1` [Example 15, 3-(5-Methyl-3-pyridin-2-yl-isoxazol-4-ylmethoxy)-isoxazole-5-carboxylic acid (2-hydroxy-ethyl)-amide], for which the Ki worked out at 3 nM.
As for `Cc1onc(-c2ccccn2)c1COc1cc(C(=O)NC2CCOC2)on1` (centres unmarked) [Example 16, 3-(5-Methyl-3-pyridin-2-yl-isoxazol-4-ylmethoxy)-isoxazole-5-carboxylic acid (tetrahydro-furan-3-yl)-amide], the Ki was 1.4 nM.
Turning to `Cc1onc(-c2ccccn2)c1COc1cc(C(=O)NCC(F)(F)F)on1` [Example 17, 3-(5-Methyl-3-pyridin-2-yl-isoxazol-4-ylmethoxy)-isoxazole-5-carboxylic acid (2,2,2-trifluoro-ethyl)-amide], the Ki turned out to be 2.3 nM.
Consider `Cc1onc(-c2ccccn2)c1COc1cc(C(=O)NN(C)C)on1` [Example 18, 3-(5-Methyl-3-pyridin-2-yl-isoxazol-4-ylmethoxy)-isoxazole-5-carboxylic acid N′,N′-dimethyl-hydrazide], for which the Ki is 8.9 nM.
To `Cc1onc(-c2ccccn2)c1COc1cc(C(=O)NN2CCOCC2)on1` [Example 19, 3-(5-Methyl-3-pyridin-2-yl-isoxazol-4-ylmethoxy)-isoxazole-5-carboxylic acid morpholin-4-ylamide] belongs 2 nM; to `Cc1onc(-c2ccccn2)c1COc1cc(C(=O)NN2CCCCC2)on1` [Example 20, 3-(5-Methyl-3-pyridin-2-yl-isoxazol-4-ylmethoxy)-isoxazole-5-carboxylic acid piperidin-1-ylamide], 6 nM.
With `Cc1onc(-c2ccccn2)c1COc1cc(C(=O)NN2CCCC2)on1` [Example 21, 3-(5-Methyl-3-pyridin-2-yl-isoxazol-4-ylmethoxy)-isoxazole-5-carboxylic acid pyrrolidin-1-ylamide], the Ki was determined as 7.8 nM.
Consider `Cc1onc(-c2ccc(F)cn2)c1COc1cc(C(=O)NC(C)C)on1` [Example 22, 3-[3-(5-Fluoro-pyridin-2-yl)-5-methyl-isoxazol-4-ylmethoxy]-isoxazole-5-carboxylic acid isopropylamide], for which the Ki came to 1.7 nM.
As to `Cc1onc(-c2ccc(F)cn2)c1COc1cc(C(=O)NCCO)on1` [Example 23, 3-[3-(5-Fluoro-pyridin-2-yl)-5-methyl-isoxazol-4-ylmethoxy]-isoxazole-5-carboxylic acid (2-hydroxy-ethyl)-amide], the Ki was found to be 2.2 nM.
With `CCCCc1noc(C)c1COc1cc(C(=O)NCCO)on1` [Example 24, 3-(3-Butyl-5-methyl-isoxazol-4-ylmethoxy)-isoxazole-5-carboxylic acid (2-hydroxy-ethyl)-amide], the Ki came out at 22.2 nM.
In the case of `CCCCc1noc(C)c1COc1cc(C(=O)NC(C)CO)on1` (centres unmarked) [Example 25, 3-(3-Butyl-5-methyl-isoxazol-4-ylmethoxy)-isoxazole-5-carboxylic acid (2-hydroxy-1-methyl-ethyl)-amide], the Ki came to 27.7 nM.
